Laboratory results reported in ChEMBL document CHEMBL1125177, “Pseudopeptide analogues of substance P and leucine enkephalinamide containing the psi (CH2O) modification: synthesis and biological activity” (J Med Chem, 1991).
Active and inactive are the calls of the source. The calls are words filed in the database; no cut-off is given here. Starred links: 1 amine or outer side, 2 acyl side, 3 side chain; linkers in the order of their positions; H or OH if unused. Non-standard residues stand in square brackets, D forms with d. Residues, ends and D or L forms follow the SMILES beside them. X3 = O=C(CCC(=O)[*:2])[C@H](Cc1ccccc1)N[*:1]; X4 = O=C(C/C=C/[C@H](Cc1ccccc1)N[*:1])[*:2]; X1 = O=C(COC[C@H](Cc1ccccc1)N[*:1])[*:2]; NMeF = CN[C@@H](Cc1ccccc1)C(=O)O; pGlu = O=C1CC[C@@H](C(=O)O)N1; AEA = NCCOCC(=O)O; Ava = NCCCCC(=O)O; Sar = CNCC(=O)O

What was measured:
Cavia porcellus [1] = organism: Cavia porcellus; test: Relative potency to that of [D-Ala2,Leu5]enkephalinamide in guinea pig ileum; type: functional
Cavia porcellus [2] = organism: Cavia porcellus; test: Inhibitory effect was measured on guinea pig ileum for maximal contraction; type: functional
Cavia porcellus [3] = organism: Cavia porcellus; test: Relative potency to that of [DAla2,Leu5]enkaphalinamide.; type: functional
[4] = Ratio of IC50 measured in MVD to that of GPI.; type: functional
Mus musculus [5] = organism: Mus musculus; test: Relative potency to that of [D-Ala2, Leu5]-enkaphalinamide in mouse vas deferens; type: functional
Mus musculus [6] = organism: Mus musculus; test: Inhibitory effect was measured on mouse vas deferens; type: functional
[7] = biological target: Delta-type opioid receptor (Rattus norvegicus) (UniProt P33533); test: It is the ratio of Ki value for delta receptor to that of opioid receptor mu
Delta-type opioid receptor (Rattus norvegicus), sequence (P33533 whole entry): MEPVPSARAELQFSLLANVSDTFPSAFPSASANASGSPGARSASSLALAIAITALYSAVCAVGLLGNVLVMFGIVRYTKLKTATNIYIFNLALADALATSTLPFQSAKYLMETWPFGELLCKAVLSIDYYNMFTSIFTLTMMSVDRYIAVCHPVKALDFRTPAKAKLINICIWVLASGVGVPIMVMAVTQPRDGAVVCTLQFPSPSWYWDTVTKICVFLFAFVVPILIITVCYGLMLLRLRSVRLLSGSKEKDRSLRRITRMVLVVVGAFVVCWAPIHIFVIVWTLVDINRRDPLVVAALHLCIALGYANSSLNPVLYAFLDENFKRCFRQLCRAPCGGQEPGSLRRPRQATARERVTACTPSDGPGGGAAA

Mu-type opioid receptor = Mu-type opioid receptor (Rattus norvegicus, UniProt P33535); test: Binding affinity to opioid receptor mu was determined in rat brain using [3H]DAGO as radioligand; type: tissue-based
Mu-type opioid receptor, sequence (P33535 whole entry): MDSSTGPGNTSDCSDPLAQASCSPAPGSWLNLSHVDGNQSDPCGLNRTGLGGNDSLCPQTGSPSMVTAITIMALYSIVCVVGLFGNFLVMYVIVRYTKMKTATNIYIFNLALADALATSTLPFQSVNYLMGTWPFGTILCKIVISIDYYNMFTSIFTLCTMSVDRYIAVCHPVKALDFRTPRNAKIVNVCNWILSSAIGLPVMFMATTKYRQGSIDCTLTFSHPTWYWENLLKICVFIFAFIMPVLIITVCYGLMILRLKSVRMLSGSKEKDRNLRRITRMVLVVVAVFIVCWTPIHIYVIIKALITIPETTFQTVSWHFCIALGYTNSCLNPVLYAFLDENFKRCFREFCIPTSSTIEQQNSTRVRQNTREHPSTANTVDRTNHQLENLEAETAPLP

[8] = biological target: Delta-type opioid receptor (Rattus norvegicus, UniProt P33533); test: Binding affinity to opioid receptor delta was determined in rat brain using [3H]DSTBULET as radioligand; type: tissue-based
Delta-type opioid receptor, sequence (P33533 whole entry): as the sequence (P33533 whole entry) above

Cavia porcellus [9] = organism: Cavia porcellus; test: Relative potency to that of [pGlu6]SP6-11 in guinea pig ileum; type: functional
Cavia porcellus [10] = organism: Cavia porcellus; test: Effective concentration was determined using guinea pig ileum; type: functional
[11] = Ratio of IC50 measured in MVD to that of GPI; c= Did not show agonist activity up to 10E-5 M.; type: functional
Mus musculus [12] = organism: Mus musculus; test: Relative potency to that of [D-Ala2, Leu5]-enkaphalinamide in mouse vas deferens; c = Did not show agonist activity up to 10E-5 M; type: functional
Mus musculus [13] = organism: Mus musculus; test: Inhibitory effect was measured on mouse vas deferens; c = Did not show agonist activity up to 10E-5 M; type: functional
Neuromedin-K receptor [14] = biological target: T1, Neuromedin-K receptor (Cavia porcellus, UniProt P30098); test: Effective dose was measured on NK3 receptors of guinea pig ileum for maximal contraction in the presence of 10e-7 M substance P methyl ester; type: functional, tissue-based
T1 sequence (P30098 whole entry): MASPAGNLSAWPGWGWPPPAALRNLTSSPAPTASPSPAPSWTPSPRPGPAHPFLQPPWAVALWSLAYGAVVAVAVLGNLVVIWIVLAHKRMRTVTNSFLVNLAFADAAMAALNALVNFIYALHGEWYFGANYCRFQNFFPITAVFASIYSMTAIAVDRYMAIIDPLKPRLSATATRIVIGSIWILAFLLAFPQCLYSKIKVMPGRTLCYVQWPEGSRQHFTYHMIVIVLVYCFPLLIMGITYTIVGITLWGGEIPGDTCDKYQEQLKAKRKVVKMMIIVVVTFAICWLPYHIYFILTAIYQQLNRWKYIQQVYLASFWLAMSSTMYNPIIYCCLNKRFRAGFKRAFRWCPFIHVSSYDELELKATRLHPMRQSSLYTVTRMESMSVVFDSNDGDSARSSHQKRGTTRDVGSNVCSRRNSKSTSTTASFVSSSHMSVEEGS

Rattus norvegicus = organism: Rattus norvegicus; test: Inhibitory effect was measured on electrically stimulated rat vas deferens contraction; type: functional
Substance-P receptor = Substance-P receptor (Cavia porcellus, UniProt P30547); test: Effective dose was measured on NK1 receptors of guinea pig ileum for maximal contraction in the presence of 3*10e-7 M atropine; type: functional, tissue-based
Substance-P receptor, sequence (P30547 whole entry): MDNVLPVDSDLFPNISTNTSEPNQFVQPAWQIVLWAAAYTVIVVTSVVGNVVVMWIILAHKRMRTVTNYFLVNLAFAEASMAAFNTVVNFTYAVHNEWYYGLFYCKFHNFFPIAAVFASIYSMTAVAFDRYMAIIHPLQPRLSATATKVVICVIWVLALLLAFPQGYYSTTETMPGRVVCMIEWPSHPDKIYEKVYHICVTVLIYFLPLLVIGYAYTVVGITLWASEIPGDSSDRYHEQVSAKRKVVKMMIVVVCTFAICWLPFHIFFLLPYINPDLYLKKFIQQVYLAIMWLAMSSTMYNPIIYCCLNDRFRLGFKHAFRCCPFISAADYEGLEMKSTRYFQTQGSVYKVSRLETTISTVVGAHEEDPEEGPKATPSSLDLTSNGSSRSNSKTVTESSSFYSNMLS

[15] = biological target: T2, Neuromedin-K receptor (Cavia porcellus) (UniProt P30098); test: Relative potency as ratio of the EC50 value of analogue to that of [PGlu6]SP6-11 in tachykinin receptor 3 in guinea pig ileum; type: functional, tissue-based
T2 sequence (whole entry): T1 sequence (P30098 whole entry)

[16] = Ratio of NK-1 receptor to that of NK-3 receptor; type: functional
Cavia porcellus [17] = organism: Cavia porcellus; test: Effective dose was measured on guinea pig ileum for maximal contraction; type: functional
Cavia porcellus [18] = organism: Cavia porcellus; test: Relative potency as ratio of the EC50 value of analogue to that of [PGlu6]SP6-11 in achykinin receptor 3 in guinea pig ileum; type: functional
Neuromedin-K receptor [19] = biological target: T1, Neuromedin-K receptor; test: Effective dose was measured on NK3 receptors of guinea pig ileum for maximal contraction in the presence of 10e-7 M substance P methyl ester.; type: functional, tissue-based

Compound: CSCC[C@H](NC(=O)[C@H](Cc1ccccc1)NC(=O)CNC(=O)CCC[C@H](N)Cc1ccc(O)cc1)C(N)=O
- Relative potency (Cavia porcellus [1]): 3%

Compound: CSCC[C@H](NC(=O)[C@H](Cc1ccccc1)NC(=O)CN(C)C(=O)CNC(=O)[C@@H](N)Cc1ccc(O)cc1)C(=O)O
- Relative potency (Cavia porcellus [1]): 0.1%

Compound: CSCC[C@H](NC(=O)[C@H](Cc1ccccc1)NC(=O)CNCCNC(=O)[C@@H](N)Cc1ccc(O)cc1)C(N)=O
- Relative potency (Cavia porcellus [1]): 0.3%

Compound: CC(C)C[C@H](NC(=O)[C@H](Cc1ccccc1)NC(=O)C/N=C(\S)CNC(=O)[C@@H](N)Cc1ccc(O)cc1)C(=O)O
- Relative potency (Cavia porcellus [1]): 400%

Compound: CC(C)C[C@H](NC(=O)[C@H](Cc1ccccc1)NC(=O)CSCCNC(=O)[C@@H](N)Cc1ccc(O)cc1)C(=O)O
- Relative potency (Cavia porcellus [1]): <1%

Compound: CSCC[C@H](NC(=O)[C@H](Cc1ccccc1)NC(=O)CNC(=O)CN(C)C(=O)[C@@H](N)Cc1ccc(O)cc1)C(=O)O
- Relative potency (Cavia porcellus [1]): <2.1%

Compound: CSCC[C@H](NC(=O)[C@H](Cc1ccccc1)NC(=O)CNC(=O)CNC[C@@H](N)Cc1ccc(O)cc1)C(N)=O
- Relative potency (Cavia porcellus [1]): 56%

Compound: CC(C)C[C@H](NC(=O)[C@H](Cc1ccccc1)NC(=O)COC[C@@H](C)NC(=O)[C@@H](N)Cc1ccc(O)cc1)C(N)=O
- IC50 (Cavia porcellus [2]): 32 nM
- Relative potency (Cavia porcellus [3]): 1%
- Ratio [4]: 0.37
- Relative potency (Mus musculus [5]): 1%
- IC50 (Mus musculus [6]): 11.8 nM

Compound: N[C@@H](Cc1ccc(O)cc1)C(=O)NC/C=C/CC(=O)N[C@@H](Cc1ccccc1)C(=O)N1CCC[C@H]1C(=O)O
- Relative potency (Cavia porcellus [1]): 0.1%

Compound: CC(C)C[C@H](NC(=O)[C@H](Cc1ccccc1)NC(=O)CNC(=O)COC[C@@H](N)Cc1ccc(O)cc1)C(N)=O
- IC50 (Cavia porcellus [2]): 30 nM
- Relative potency (Cavia porcellus [3]): 1.06%
- Ratio [4]: 3.12
- Ratio [7]: 2.12
- Relative potency (Cavia porcellus [1]): 106%
- Relative potency (Mus musculus [5]): 0.13%
- Ki (Mu-type opioid receptor): 3.69 nM
- IC50 (Mus musculus [6]): 92 nM
- Ki [8]: 7.78 nM

Compound: CC(C)CC(NC(=O)[C@H](Cc1ccccc1)NC(=O)COC[C@@H](CO)NC(=O)C(N)Cc1ccc(O)cc1)C(=O)N[C@H](C(=O)O)[C@@H](C)O (stereo not given in full)
- IC50 (Cavia porcellus [2]): 350 nM
- Relative potency (Cavia porcellus [3]): 0.09%
- Ratio [4]: 0.0015
- Relative potency (Mus musculus [5]): 21.8%
- IC50 (Mus musculus [6]): 0.54 nM

Compound: CSCC[C@H](NC(=O)[C@H](CC(C)C)NC(=O)CC(=O)N[C@H](Cc1ccccc1)NC(=O)[C@H](Cc1ccccc1)NC(=O)[C@@H]1CCC(=O)N1)C(N)=O
- Relative potency (Cavia porcellus [9]): 22%
- EC50 (Cavia porcellus [10]): 2 nM

Compound: CSCC[C@H](NC(=O)[C@H](Cc1ccccc1)NC(=O)CNC(=O)[C@@H](C)NC(=O)[C@@H](N)Cc1ccc(O)cc1)C(N)=O
- IC50 (Cavia porcellus [2]): 29 nM
- Ratio [4]: 0.14
- Relative potency (Cavia porcellus [1]): 1.1%
- Relative potency (Mus musculus [5]): 2.8%
- IC50 (Mus musculus [6]): 4.2 nM

Compound: CC(C)C[C@H](NC(=O)[C@H](Cc1ccccc1)NC(=O)CNC(=O)CSC[C@@H](N)Cc1ccc(O)cc1)C(=O)O
- Relative potency (Cavia porcellus [1]): 24.1%

Compound: COC(=O)[C@H](CC(C)C)NC(=O)[C@H](Cc1ccccc1)NC(=O)CNC(=O)C/C=C/[C@@H](N)Cc1ccc(O)cc1
- Relative potency (Cavia porcellus [1]): 300%

Compound: CC(C)C[C@H](NC(=O)[C@H](Cc1ccccc1)NC(=O)COCCNC(=O)[C@@H](N)Cc1ccc(O)cc1)C(N)=O (H-Y[AEA]FL-NH2)
- Ratio [11]: inactive
- IC50 (Cavia porcellus [2]): 2300 nM
- Relative potency (Mus musculus [12]): inactive
- Relative potency (Cavia porcellus [3]): 0.014%
- Ratio [7]: 6.66
- Relative potency (Cavia porcellus [1]): 1.4%
- Ki (Mu-type opioid receptor): 1380 nM
- Ki [8]: 9200 nM
- IC50 (Mus musculus [13]): Not Active

Compound: CSCC[C@H](NC(=O)[C@H](Cc1ccccc1)NC(=O)CCCCNC(=O)[C@@H](N)Cc1ccc(O)cc1)C(N)=O (H-Y[Ava]FM-NH2)
- Relative potency (Cavia porcellus [1]): <0.3%

Compound: CSCC[C@H](NC(=O)[C@H](CC(C)C)NC(=O)CNC(=O)[C@H](Cc1ccccc1)NC(=O)[C@H](Cc1ccccc1)NC(=O)[C@@H]1CCC(=O)N1)C(N)=O ([pGlu]FFGLM-NH2)
- EC50 (Neuromedin-K receptor [14]): 5 nM
- EC50 (Rattus norvegicus): 20000 nM
- EC50 (Substance-P receptor): 2.2 nM
- Relative potency [15]: 100%
- Ratio [16]: 0.44
- EC50 (Cavia porcellus [17]): 1.2 nM

Compound: CSCC[C@H](NC(=O)[C@H](CC(C)C)NC(=O)CN(C)C(=O)[C@H](Cc1ccccc1)NC(=O)[C@H](Cc1ccccc1)NC(=O)[C@@H]1CCC(=O)N1)C(N)=O ([pGlu]FF[Sar]LM-NH2)
- Relative potency (Cavia porcellus [9]): 80%
- EC50 (Cavia porcellus [10]): 2 nM

Compound: CSCC[C@H](NC(=O)[C@H](CC(C)C)NC(=O)CNC(=O)[C@H](Cc1ccccc1)N(C)C(=O)[C@H](Cc1ccccc1)NC(=O)[C@@H]1CCC(=O)N1)C(N)=O ([pGlu]F[NMeF]GLM-NH2)
- Relative potency (Cavia porcellus [18]): 555%
- EC50 (Neuromedin-K receptor [19]): 0.9 nM
- EC50 (Rattus norvegicus): 20000 nM
- EC50 (Substance-P receptor): 600 nM
- Ratio [16]: 670
- EC50 (Cavia porcellus [17]): 0.4 nM

Compound: CSCC[C@H](NC(=O)[C@H](CC(C)C)NC(=O)COC[C@H](Cc1ccccc1)NC(=O)[C@H](Cc1ccccc1)NC(=O)[C@@H]1CCC(=O)N1)C(N)=O ([pGlu]F[X1]LM-NH2)
- EC50 (Neuromedin-K receptor [19]): 12.5 nM
- Relative potency (Cavia porcellus [9]): 25%
- EC50 (Cavia porcellus [10]): 2 nM
- EC50 (Rattus norvegicus): 2000 nM
- EC50 (Substance-P receptor): 39.6 nM
- Relative potency [15]: 40%
- Ratio [16]: 3.16
- EC50 (Cavia porcellus [17]): 4.8 nM

Compound: CSCC[C@H](NC(=O)[C@H](CC(C)C)NC(=O)CCC(=O)[C@H](Cc1ccccc1)NC(=O)[C@H](Cc1ccccc1)NC(=O)[C@@H]1CCC(=O)N1)C(N)=O ([pGlu]F[X3]LM-NH2)
- Relative potency (Cavia porcellus [9]): 70%
- EC50 (Cavia porcellus [10]): 2 nM

Compound: CSCC[C@H](NC(=O)[C@H](CC(C)C)NC(=O)C/C=C/[C@H](Cc1ccccc1)NC(=O)[C@H](Cc1ccccc1)NC(=O)[C@@H]1CCC(=O)N1)C(N)=O ([pGlu]F[X4]LM-NH2)
- Relative potency (Cavia porcellus [9]): 24%
- EC50 (Cavia porcellus [10]): 2 nM

Compound: C[C@@H](NC(=O)[C@@H](N)Cc1ccc(O)cc1)C(=O)NCC(=O)N(C)[C@@H](Cc1ccccc1)C(=O)NCCO [DAMGO]
- IC50 (Cavia porcellus [2]): 18 nM
- IC50 (Mus musculus [6]): 51.5 nM
- Ki [8]: 629 nM
